# Measurements published in the supplement of paper PMC10307832.
# Tests used:
# Test in all cases: relative viability (nuclei count vs DMSO), 5 days (fraction); higher = more cells survive
# [1] = compound: O=C(c1cc(Cc2n[nH]c(=O)c3ccccc23)ccc1F)N1CCN(C(=O)C2CC2)CC1 [Olaparib] + CS(=O)(=O)N1CCN(Cc2cc3nc(-c4cccc5[nH]ncc45)nc(N4CCOCC4)c3s2)CC1 [Pictilisib] (partner 1 µM)
# Summary of the method: (§1)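 Dosing by pin tool came one day after lung cancer cell lines were seeded in 1536-well plates, using either one drug or a fixed anchor-drug dose plus five library-drug doses (not always all listed) in √10 steps. After 5 days, nuclei were counted on 4× images. Relative viability is treated-well nuclei count divided by vehicle-well nuclei count, and values are medians of duplicate plates.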
# [2] = compound: CC(C)C[C@H](NC(=O)[C@H](CCc1ccccc1)NC(=O)CN1CCOCC1)C(=O)N[C@@H](Cc1ccccc1)C(=O)N[C@@H](CC(C)C)C(=O)[C@@]1(C)CO1 [Carfilzomib] + Cc1nc(Nc2ncc(C(=O)Nc3c(C)cccc3Cl)s2)cc(N2CCN(CCO)CC2)n1 [Dasatinib] (partner 0.075 µM)
# Summary of the method: as §1
# [3] = compound: C[C@@H](Oc1cc(-c2cnn(C3CCNCC3)c2)cnc1N)c1c(Cl)ccc(F)c1Cl [Crizotinib] + O=C(c1cc(Cc2n[nH]c(=O)c3ccccc23)ccc1F)N1CCN(C(=O)C2CC2)CC1 [Olaparib] (partner 8 µM)
# Summary of the method: as §1
# [4] = compound: CC(C)C[C@H](NC(=O)[C@H](CCc1ccccc1)NC(=O)CN1CCOCC1)C(=O)N[C@@H](Cc1ccccc1)C(=O)N[C@@H](CC(C)C)C(=O)[C@@]1(C)CO1 [Carfilzomib] + CS(=O)(=O)CCNCc1ccc(-c2ccc3ncnc(Nc4ccc(OCc5cccc(F)c5)c(Cl)c4)c3c2)o1 [Lapatinib] (partner 2 µM)
# Summary of the method: as §1
Cell Line,relative viability ([1]; first compound 0.08 µM),relative viability ([1]; first compound 0.253 µM),relative viability ([1]; first compound 2.53 µM),relative viability ([1]; first compound 8 µM),relative viability ([2]; first compound 0.001 µM),relative viability ([2]; first compound 0.003162 µM),relative viability ([2]; first compound 0.01 µM),relative viability ([2]; first compound 0.03162 µM),relative viability ([2]; first compound 0.1 µM),relative viability ([3]; first compound 0.01 µM),relative viability ([3]; first compound 0.03162 µM),relative viability ([3]; first compound 0.1 µM),relative viability ([3]; first compound 0.3162 µM),relative viability ([3]; first compound 1 µM),relative viability ([4]; first compound 0.001 µM),relative viability ([4]; first compound 0.003162 µM),relative viability ([4]; first compound 0.01 µM),relative viability ([4]; first compound 0.03162 µM),relative viability ([4]; first compound 0.1 µM)
201T,0.669,0.665,0.631,0.704,0.51,0.61,0.643,0.593,0.522,0.776,0.83,0.892,0.846,0.861,1.02,0.961,1.05,1.04,0.88
A549,0.636,0.398,0.456,0.376,–,–,–,–,–,0.38,0.259,0.362,–,0.456,0.885,1.05,0.931,0.359,0.0624
A-427,0.697,0.571,0.547,0.584,0.776,0.853,0.597,0.0935,0.107,0.745,0.777,0.783,–,0.623,0.925,1.09,1.09,0.972,0.157
ABC-1,0.916,0.777,0.65,0.625,0.521,0.504,0.196,0.172,0.324,–,1.11,0.823,–,0.63,1.08,1.54,1.2,0.499,0.516
BEN,0.52,0.551,0.593,0.674,0.294,0.328,0.299,0.298,0.203,1.04,1.06,0.924,0.974,1.15,0.635,0.819,0.854,0.553,0.267
CAL-12T,0.772,0.413,0.452,0.439,0.321,0.484,0.509,0.174,0.108,0.811,0.794,0.743,0.709,0.723,–,0.691,0.759,0.618,0.207
COR-L23,0.918,0.674,0.724,0.385,0.478,0.523,0.425,0.0606,0.0642,0.298,0.343,0.372,0.366,0.382,0.906,1.16,0.895,0.0642,0.0567
COR-L 105,0.389,0.392,0.415,0.387,0.409,0.393,0.319,0.235,0.167,0.661,0.689,0.757,0.584,0.7,0.348,0.377,0.386,0.324,0.289
Calu-6,1.12,0.825,0.858,0.75,–,–,–,–,–,0.606,0.571,0.522,0.624,0.549,1.08,1.12,1.13,0.135,0.116
ChaGo-K-1,1.27,0.674,0.75,0.661,0.546,0.591,0.585,0.335,0.203,0.422,0.413,0.418,0.297,0.444,–,–,–,–,–
EBC-1,0.392,0.345,0.368,0.304,–,–,–,–,–,0.563,0.664,0.643,0.182,0.154,0.228,0.203,0.208,0.169,0.144
EKVX,0.493,0.444,0.41,0.477,0.49,0.342,0.597,0.478,0.214,0.754,0.922,0.866,0.777,0.793,0.221,0.416,0.212,0.183,0.137
EMC-BAC-2,0.662,0.5,0.524,0.496,0.327,0.363,0.35,0.256,0.256,0.501,0.489,0.499,–,0.474,0.89,0.958,0.879,0.843,0.471
EPLC-272H,0.311,0.284,0.278,0.283,0.379,0.407,0.215,0.0812,0.0631,0.624,0.729,0.805,0.974,0.837,0.804,1.47,1.06,0.298,0.0991
H3255,0.478,0.406,0.445,0.386,0.356,0.431,0.486,0.339,0.355,0.565,0.56,0.575,0.518,0.627,0.252,0.338,0.259,0.225,0.296
HARA,0.407,0.454,0.567,0.37,0.324,0.312,0.32,0.0493,0.0578,0.876,0.929,0.957,0.793,0.635,0.817,0.911,0.882,0.0695,0.0699
HCC-15,0.866,0.647,0.678,0.627,0.609,0.654,0.673,0.3,0.0867,0.724,0.648,0.712,0.76,0.772,0.857,0.872,0.918,0.428,0.176
HCC-44,0.697,0.552,0.7,0.544,–,–,–,–,–,0.923,1.04,1.05,0.955,1,1.07,0.985,1.16,0.878,0.245
HCC-78,0.241,0.204,0.208,0.196,0.228,0.459,0.323,0.435,0.2,0.737,0.646,0.705,0.681,0.837,0.791,0.701,0.9,0.165,0.142
HCC-366,0.135,0.179,0.11,0.138,0.624,0.727,0.629,0.705,0.173,0.357,0.357,0.329,–,0.356,0.941,1.02,0.963,0.305,0.0207

Cell Line,relative viability ([1]; first compound 0.08 µM),relative viability ([1]; first compound 0.253 µM),relative viability ([1]; first compound 2.53 µM),relative viability ([1]; first compound 8 µM),relative viability ([2]; first compound 0.001 µM),relative viability ([2]; first compound 0.003162 µM),relative viability ([2]; first compound 0.01 µM),relative viability ([2]; first compound 0.03162 µM),relative viability ([2]; first compound 0.1 µM),relative viability ([3]; first compound 0.01 µM),relative viability ([3]; first compound 0.03162 µM),relative viability ([3]; first compound 0.1 µM),relative viability ([3]; first compound 0.3162 µM),relative viability ([3]; first compound 1 µM),relative viability ([4]; first compound 0.001 µM),relative viability ([4]; first compound 0.003162 µM),relative viability ([4]; first compound 0.01 µM),relative viability ([4]; first compound 0.03162 µM),relative viability ([4]; first compound 0.1 µM)
HCC-827,0.905,0.781,1.07,0.95,0.3,0.306,0.239,0.374,0.273,0.618,0.58,0.637,0.517,0.655,0.175,0.164,0.166,0.258,0.154
HOP-62,0.846,0.601,0.698,0.464,0.618,0.655,0.499,0.0996,0.0979,0.38,0.415,0.479,0.316,0.504,1.16,1.21,1.06,0.308,0.0688
IA-LM,0.392,0.372,0.321,0.317,–,–,–,–,–,0.797,0.844,0.821,0.691,0.73,0.846,0.667,0.434,0.0463,0.081
LC-2-ad,0.529,0.523,0.491,0.336,0.475,0.711,0.796,0.475,0.256,0.806,0.689,0.712,–,0.751,0.861,1.14,0.984,0.153,0.12
LCLC-97TM1,0.263,0.233,0.174,0.152,0.776,0.89,0.837,0.774,0.397,0.308,0.32,0.353,0.384,0.428,0.73,1.58,0.957,0.282,0.142
LCLC-103H,0.682,0.557,0.53,0.52,0.343,0.503,0.518,0.362,0.299,0.824,0.766,0.794,0.816,0.749,–,–,–,–,–
LK-2,0.752,0.587,0.599,0.5,0.299,0.349,0.229,0.154,0.17,0.678,0.638,0.87,0.461,0.753,0.673,1.19,0.72,0.226,0.217
LOU-NH91,0.559,0.524,0.515,0.503,0.523,0.618,0.564,0.273,0.281,0.917,0.876,0.925,0.848,0.912,0.767,0.783,0.607,0.309,0.288
LU99A,0.303,0.293,0.3,0.296,0.533,0.688,0.512,0.278,0.152,0.246,0.258,0.272,0.236,0.266,1,1.03,0.972,0.521,0.2
LXF-289,0.825,0.713,0.729,0.74,0.151,0.312,0.192,0.0373,0.0553,0.994,1.12,1.15,0.993,1.11,0.921,0.942,0.917,0.0958,0.101
NCI-H441,0.676,0.387,0.552,0.456,0.66,0.629,0.376,0.156,0.176,0.595,0.444,0.583,0.517,0.587,–,–,–,–,–
NCI-H522,–,–,–,–,0.872,0.946,0.885,0.398,0.433,0.658,0.585,0.736,0.747,0.604,–,–,–,–,–
NCI-H1299,0.815,0.805,0.8,0.582,–,–,–,–,–,0.95,0.95,0.92,0.947,0.975,0.98,1.01,0.982,0.681,0.147
NCI-H1563,0.614,0.645,0.695,0.635,0.431,0.463,0.488,0.505,0.367,–,–,–,–,–,0.926,1.1,0.927,0.771,0.506
NCI-H1623,–,–,–,–,0.509,0.571,0.599,0.271,0.642,–,–,–,–,–,–,–,–,–,–
NCI-H1648,–,–,–,–,–,–,–,–,–,–,0.981,0.861,1.27,0.77,–,–,–,–,–
NCI-H1703,0.299,0.346,0.275,0.27,–,–,–,–,–,0.389,0.757,0.528,0.414,0.463,1.02,1.19,0.207,0.149,0.173
NCI-H2342,–,–,–,–,0.364,0.32,0.355,0.374,0.321,0.427,0.406,0.429,0.418,0.435,–,–,–,–,–
SW 900,–,–,–,–,0.561,0.467,0.137,0.141,0.137,0.792,0.814,0.831,1.06,0.863,–,–,–,–,–
